# Legend:
# [1] = system: Echinochloa oryzoides (Ard.) Fritsch.; assay: Preemergence weed control under flooded paddy conditions, ECHORC (Watergrass (Calif.)); format: in vivo; conditions: preemergence, flooded paddy, rated three to four weeks after treatment; on herbicidal effect rating, ECHORC: meaning of each grade not given here
# Cyperus iria = assay: Preemergence weed control under flooded paddy conditions, CYPIR (Rice Flatsedge); format: in vivo; conditions: preemergence, flooded paddy, rated three to four weeks after treatment; on herbicidal effect rating, CYPIR: meaning of each grade not given here
# [2] = system: Cyperus serotinus, Rottb.; assay: Preemergence weed control under flooded paddy conditions, CYPSE (Flatsedge); format: in vivo; conditions: preemergence, rated three to four weeks after treatment; on herbicidal effect rating, CYPSE: meaning of each grade not given here
# [3] = system: Monochoria vaginalis, Presl.; assay: Preemergence weed control under flooded paddy conditions, MOOVA (Monochoria); format: in vivo; conditions: preemergence, flooded paddy, rated three to four weeks after treatment; on herbicidal effect rating, MOOVA: meaning of each grade not given here
# Sagittaria pygmaea, L. = assay: Preemergence weed control under flooded paddy conditions, SAGPY (Arrowhead (Pygmaea)); format: in vivo; conditions: preemergence, flooded paddy, rated three to four weeks after treatment; on herbicidal effect rating, SAGPY: meaning of each grade not given here
# [4] = system: Oryza sativa, (L.) Tebonnet; assay: Rice tolerance to post-transplant applications under flooded paddy conditions (Example 187), ORYSAT (Rice, Tebonnet); conditions: rated three to four weeks after treatment; on herbicidal effect rating ORYSAT: meaning of each grade not given here
smiles,measurement,setting,value
"C#CCOC(=O)COc1c(-c2nsc3ccc(-n4c(=O)cc(C(F)(F)F)n(C)c4=O)cc23)ccc(C)c1C [Example 280, Acetic acid, {{6-[5-[3,6-dihydro-3-methyl-2,6-dioxo-4-(trifluoromethyl)-1(2H)-pyrimidinyl]-1,2-benzisothiazol-3-yl}-2,3-xylyl}oxy}-, 2-propynyl ester]",ECHORC herbicidal effect rating,[1]; Rate 0.0320 kg/ha,0.0
same,ECHORC herbicidal effect rating,[1]; Rate 0.0620 kg/ha,5.7
same,ECHORC herbicidal effect rating,[1]; Rate 0.1250 kg/ha,7.6
same,ECHORC herbicidal effect rating,[1]; Rate 0.2500 kg/ha,9.0
same,ECHORC herbicidal effect rating,[1]; Rate 0.5000 kg/ha,9.0
same,CYPIR herbicidal effect rating,Cyperus iria; Rate 0.0320 kg/ha,2.0
same,CYPIR herbicidal effect rating,Cyperus iria; Rate 0.0620 kg/ha,6.0
same,CYPIR herbicidal effect rating,Cyperus iria; Rate 0.1250 kg/ha,8.0
same,CYPIR herbicidal effect rating,Cyperus iria; Rate 0.2500 kg/ha,9.0
same,CYPIR herbicidal effect rating,Cyperus iria; Rate 0.5000 kg/ha,9.0
same,CYPSE herbicidal effect rating,[2]; Rate 0.0320 kg/ha,0.0
same,CYPSE herbicidal effect rating,[2]; Rate 0.0620 kg/ha,0.0
same,CYPSE herbicidal effect rating,[2]; Rate 0.1250 kg/ha,0.0
same,CYPSE herbicidal effect rating,[2]; Rate 0.2500 kg/ha,2.0
same,CYPSE herbicidal effect rating,[2]; Rate 0.5000 kg/ha,3.0
same,MOOVA herbicidal effect rating,[3]; Rate 0.0320 kg/ha,9.0
same,MOOVA herbicidal effect rating,[3]; Rate 0.0620 kg/ha,9.0
same,MOOVA herbicidal effect rating,[3]; Rate 0.1250 kg/ha,9.0
same,MOOVA herbicidal effect rating,[3]; Rate 0.2500 kg/ha,9.0
same,MOOVA herbicidal effect rating,[3]; Rate 0.5000 kg/ha,9.0
same,SAGPY herbicidal effect rating,"Sagittaria pygmaea, L.; Rate 0.0320 kg/ha",0.0
same,SAGPY herbicidal effect rating,"Sagittaria pygmaea, L.; Rate 0.0620 kg/ha",0.0
same,SAGPY herbicidal effect rating,"Sagittaria pygmaea, L.; Rate 0.1250 kg/ha",2.0
same,SAGPY herbicidal effect rating,"Sagittaria pygmaea, L.; Rate 0.2500 kg/ha",9.0
same,SAGPY herbicidal effect rating,"Sagittaria pygmaea, L.; Rate 0.5000 kg/ha",9.0
same,ORYSAT herbicidal effect rating,[4]; Rate 0.0320 kg/ha,3.0
same,ORYSAT herbicidal effect rating,[4]; Rate 0.0620 kg/ha,3.0
same,ORYSAT herbicidal effect rating,[4]; Rate 0.1250 kg/ha,7.0
same,ORYSAT herbicidal effect rating,[4]; Rate 0.2500 kg/ha,8.0
same,ORYSAT herbicidal effect rating,[4]; Rate 0.5000 kg/ha,9.0
"Cn1c(C(F)(F)F)cc(=O)n(-c2ccc3snc(COCc4ccc(Cl)cc4Cl)c3c2)c1=O [Example 585, 2,4(1H,3H)-Pyrimidinedione, 3-{3-{[(2,4-dichlorobenzyl)oxy]methyl}-1,2-benzisothiazol-5-yl}-1-methyl-6-(trifluoromethyl)-]","herbicidal effect rating, ECHORC",[1]; Rate 0.0320 kg/ha,5.0
same,"herbicidal effect rating, ECHORC",[1]; Rate 0.0620 kg/ha,8.5
same,"herbicidal effect rating, ECHORC",[1]; Rate 0.1250 kg/ha,8.5
same,"herbicidal effect rating, ECHORC",[1]; Rate 0.2500 kg/ha,9.0
same,"herbicidal effect rating, CYPIR",Cyperus iria; Rate 0.0320 kg/ha,2.5
same,"herbicidal effect rating, CYPIR",Cyperus iria; Rate 0.0620 kg/ha,8.5
same,"herbicidal effect rating, CYPIR",Cyperus iria; Rate 0.1250 kg/ha,9.0
same,"herbicidal effect rating, CYPIR",Cyperus iria; Rate 0.2500 kg/ha,9.0
same,"herbicidal effect rating, CYPSE",[2]; Rate 0.0320 kg/ha,0.0
same,"herbicidal effect rating, CYPSE",[2]; Rate 0.0620 kg/ha,0.0
same,"herbicidal effect rating, CYPSE",[2]; Rate 0.1250 kg/ha,0.0
same,"herbicidal effect rating, CYPSE",[2]; Rate 0.2500 kg/ha,3.0
same,"herbicidal effect rating, MOOVA",[3]; Rate 0.0320 kg/ha,3.5
same,"herbicidal effect rating, MOOVA",[3]; Rate 0.0620 kg/ha,3.5
same,"herbicidal effect rating, MOOVA",[3]; Rate 0.1250 kg/ha,4.5
same,"herbicidal effect rating, MOOVA",[3]; Rate 0.2500 kg/ha,9.0
same,"herbicidal effect rating, SAGPY","Sagittaria pygmaea, L.; Rate 0.0320 kg/ha",0.0
same,"herbicidal effect rating, SAGPY","Sagittaria pygmaea, L.; Rate 0.0620 kg/ha",1.5
same,"herbicidal effect rating, SAGPY","Sagittaria pygmaea, L.; Rate 0.1250 kg/ha",2.0
same,"herbicidal effect rating, SAGPY","Sagittaria pygmaea, L.; Rate 0.2500 kg/ha",2.5
same,herbicidal effect rating ORYSAT,[4]; Rate 0.0320 kg/ha,1.0
same,herbicidal effect rating ORYSAT,[4]; Rate 0.0620 kg/ha,1.5
same,herbicidal effect rating ORYSAT,[4]; Rate 0.1250 kg/ha,1.5
same,herbicidal effect rating ORYSAT,[4]; Rate 0.2500 kg/ha,1.5
"CCOP(=O)(Cc1nsc2cc(F)c(-n3c(=O)cc(C(F)(F)F)n(C)c3=O)cc12)OCC [Example 377, 1,2-Benzisothiazole-3-methanephosphonic acid, 5-[3,6-dihydro-3-methyl-2,6-dioxo-4-(trifluoromethyl)-1(2H)-pyrimidinyl]-6-fluoro-, diethyl ester]","herbicidal effect rating, ECHORC",[1]; Rate 0.0320 kg/ha,2.0
same,"herbicidal effect rating, ECHORC",[1]; Rate 0.0620 kg/ha,5.0
same,"herbicidal effect rating, ECHORC",[1]; Rate 0.1250 kg/ha,7.0
same,"herbicidal effect rating, ECHORC",[1]; Rate 0.2500 kg/ha,9.0
same,"herbicidal effect rating, CYPIR",Cyperus iria; Rate 0.0320 kg/ha,2.0
same,"herbicidal effect rating, CYPIR",Cyperus iria; Rate 0.0620 kg/ha,3.0
same,"herbicidal effect rating, CYPIR",Cyperus iria; Rate 0.1250 kg/ha,4.5
same,"herbicidal effect rating, CYPIR",Cyperus iria; Rate 0.2500 kg/ha,8.0
same,"herbicidal effect rating, CYPSE",[2]; Rate 0.0320 kg/ha,1.0
same,"herbicidal effect rating, CYPSE",[2]; Rate 0.0620 kg/ha,3.0
same,"herbicidal effect rating, CYPSE",[2]; Rate 0.1250 kg/ha,5.0
same,"herbicidal effect rating, CYPSE",[2]; Rate 0.2500 kg/ha,8.5
same,"herbicidal effect rating, MOOVA",[3]; Rate 0.0320 kg/ha,9.0
same,"herbicidal effect rating, MOOVA",[3]; Rate 0.0620 kg/ha,9.0
same,"herbicidal effect rating, MOOVA",[3]; Rate 0.1250 kg/ha,9.0
same,"herbicidal effect rating, MOOVA",[3]; Rate 0.2500 kg/ha,9.0
same,"herbicidal effect rating, SAGPY","Sagittaria pygmaea, L.; Rate 0.0320 kg/ha",0.0
same,"herbicidal effect rating, SAGPY","Sagittaria pygmaea, L.; Rate 0.0620 kg/ha",4.0
same,"herbicidal effect rating, SAGPY","Sagittaria pygmaea, L.; Rate 0.1250 kg/ha",8.5
same,"herbicidal effect rating, SAGPY","Sagittaria pygmaea, L.; Rate 0.2500 kg/ha",9.0
same,herbicidal effect rating ORYSAT,[4]; Rate 0.0320 kg/ha,5.5
same,herbicidal effect rating ORYSAT,[4]; Rate 0.0620 kg/ha,6.5
same,herbicidal effect rating ORYSAT,[4]; Rate 0.1250 kg/ha,8.0
same,herbicidal effect rating ORYSAT,[4]; Rate 0.2500 kg/ha,9.0
